Legend:
[1] = tested on: HIV-1NL4-3 I37T/N43K pseudovirus; format: cell-based; details: HIV-1NL4-3 I37T/N43K; TZM-bl, 48 h; mean ± SD of three independent experiments
Protocol: The mutations were created using double-stranded DNA templates and selection of mutants with DpnI. For each mutation, the two primers contained the desired mutation and occupied the same starting and ending positions on opposite strands of the plasmid DNA. DNA synthesis was carried out by PCR in a 50-µL reaction volume using 1 µL of denatured plasmid template (1 ng/µL), 50 pmol of upper and lower primers and 5 U of high-fidelity thermostable polymerase PrimeStar (Takara, Dalian, China). PCR amplification was carried out for one cycle of denaturation at 98°C for 5 min, then 18 cycles of 98°C for 15 s and 68°C for 15 min, followed a final extension at 72°C for 10 min. The amplicons were treated with the restriction enzyme DpnI for 1 h at 37°C. DpnI-resistant molecules, which were rich in the desired mutants, were recovered by transforming Escherichia coli strain-DH5α to antibiotic resistance. The successful mutations were confirmed by sequencing.
HIV-1 pseudoviruses were generated as described previously [32], [55]–[56]. Briefly, 293T cells (5×10^6 cells in 15 ml of growth medium in a T-75 culture flask) were cotransfected with 10 µg of an Env-expressing plasmid and 20 µg of a backbone plasmid pSG3deltaEnv that encodes Env-defective, luciferase-expressing HIV-1 genome using Lipofectamine 2000 reagent (Invitrogen). Pseudovirus-containing culture supernatants were harvested 48 hours after transfection and filtered by 0.45-mm pore size, and stored at −80°C in 1-ml aliquots until use. The 50% tissue culture infectious dose (TCID50) of a single thawed aliquot of each pseudovirus batch was determined in TZM-bl cells. […] Briefly, the peptides were prepared with ten series dilutions in a 3-fold stepwise manner and mixed with 100 TCID50 viruses and incubated 1 hour at room temperature. The mixture was added to TZM-bl cells (10^4/well) and incubation at 37°C for 48 hours. Luciferase activity was measured using luciferase assay regents (Promega, Medison, WI) and a Luminescence Counter (Promega) according to the manufacture's instructions.

[2] = tested on: HIV-1HXB2 Env-mediated cell-cell membrane fusion (TZM-bl / HL2/3 cells); details: read-out: IC50, Env-mediated cell-cell fusion; TZM-bl with HL2/3 cells, 6 h, 37°C, luciferase; three independent experiments
Protocol: Cell fusion was monitored using a reporter gene assay based on activation of HIV LTR-driven luciferase cassette in TZM-bl (Target) cells by HIV-1 tat from the HL2/3 (Effector) cells. Briefly, the TZM-bl cells were plated in 96-well clusters (2×10^4 per well) and incubated at 37°C overnight. […] Luciferase activity was measured using luciferase assay regents (Promega, Medison, WI) and a Luminescence Counter (Promega) according to the manufacture's instructions. Background luminescence in TZM-bl cells was determined without addition of HL2/3 cells.

[3] = tested on: N36 (NHR target sequence); assay: CD spectroscopy (C-peptide alone or with N36); format: physicochemical, HIV-1; details: PBS pH 7.2, 10 µM (methods), room temperature
Protocol: CD spectroscopy was performed as previously described, [26]. […] The isolated N- and C-peptides were also tested. […] Data were averaged over three accumulations.

Substance: enfuvirtide
- IC50 [1]: > 3000 nM
- IC50 [2]: 56.2 nM
- CD spectrum / α-helicity with N36 ([3]; equimolar N36, 37°C 30 min, 222 nm): could not form a typical α-helical complex with N36
- CD spectrum / α-helical conformation of C-peptide alone ([3]; peptide alone, 190-260 nm): minimum α-helical conformation

From publication PMC3293837, “Biophysical Property and Broad Anti-HIV Activity of Albuvirtide, a 3-Maleimimidopropionic Acid-Modified Peptide Fusion Inhibitor” (PLoS ONE, 2012)
